From article PMC12621202, “RTx-303, an Orally Bioavailable Polθ Polymerase Inhibitor That Potentiates PARP Inhibitors in BRCA Mutant Tumors” (Journal of Medicinal Chemistry, 2025)

Legend:
Experiment in all cases: Kinase profiling
Type in all cases: biochemical
Details in all cases: mean n=2, read-out: % Activity with 10 µM RTx-303
A-Raf(h) = biological target: T1, A-Raf(h) (Homo sapiens, UniProt P10398)
T1 construct: purchased Eurofins (KinaseProfiler)
Procedure: (§1) Supplementary Fig. 8 Pharmacological profiling of RTx-303 against kinases.
(§2) % activity of the indicated kinases is shown following incubation with 10 µM RTx-303 in vitro.
(§3) Data represent mean (n = 2).

ATM(h) = biological target: T2, ATM(h) (Homo sapiens, UniProt Q13315)
T2 construct: purchased Eurofins (KinaseProfiler)
T2 sequence (Q13315 whole entry): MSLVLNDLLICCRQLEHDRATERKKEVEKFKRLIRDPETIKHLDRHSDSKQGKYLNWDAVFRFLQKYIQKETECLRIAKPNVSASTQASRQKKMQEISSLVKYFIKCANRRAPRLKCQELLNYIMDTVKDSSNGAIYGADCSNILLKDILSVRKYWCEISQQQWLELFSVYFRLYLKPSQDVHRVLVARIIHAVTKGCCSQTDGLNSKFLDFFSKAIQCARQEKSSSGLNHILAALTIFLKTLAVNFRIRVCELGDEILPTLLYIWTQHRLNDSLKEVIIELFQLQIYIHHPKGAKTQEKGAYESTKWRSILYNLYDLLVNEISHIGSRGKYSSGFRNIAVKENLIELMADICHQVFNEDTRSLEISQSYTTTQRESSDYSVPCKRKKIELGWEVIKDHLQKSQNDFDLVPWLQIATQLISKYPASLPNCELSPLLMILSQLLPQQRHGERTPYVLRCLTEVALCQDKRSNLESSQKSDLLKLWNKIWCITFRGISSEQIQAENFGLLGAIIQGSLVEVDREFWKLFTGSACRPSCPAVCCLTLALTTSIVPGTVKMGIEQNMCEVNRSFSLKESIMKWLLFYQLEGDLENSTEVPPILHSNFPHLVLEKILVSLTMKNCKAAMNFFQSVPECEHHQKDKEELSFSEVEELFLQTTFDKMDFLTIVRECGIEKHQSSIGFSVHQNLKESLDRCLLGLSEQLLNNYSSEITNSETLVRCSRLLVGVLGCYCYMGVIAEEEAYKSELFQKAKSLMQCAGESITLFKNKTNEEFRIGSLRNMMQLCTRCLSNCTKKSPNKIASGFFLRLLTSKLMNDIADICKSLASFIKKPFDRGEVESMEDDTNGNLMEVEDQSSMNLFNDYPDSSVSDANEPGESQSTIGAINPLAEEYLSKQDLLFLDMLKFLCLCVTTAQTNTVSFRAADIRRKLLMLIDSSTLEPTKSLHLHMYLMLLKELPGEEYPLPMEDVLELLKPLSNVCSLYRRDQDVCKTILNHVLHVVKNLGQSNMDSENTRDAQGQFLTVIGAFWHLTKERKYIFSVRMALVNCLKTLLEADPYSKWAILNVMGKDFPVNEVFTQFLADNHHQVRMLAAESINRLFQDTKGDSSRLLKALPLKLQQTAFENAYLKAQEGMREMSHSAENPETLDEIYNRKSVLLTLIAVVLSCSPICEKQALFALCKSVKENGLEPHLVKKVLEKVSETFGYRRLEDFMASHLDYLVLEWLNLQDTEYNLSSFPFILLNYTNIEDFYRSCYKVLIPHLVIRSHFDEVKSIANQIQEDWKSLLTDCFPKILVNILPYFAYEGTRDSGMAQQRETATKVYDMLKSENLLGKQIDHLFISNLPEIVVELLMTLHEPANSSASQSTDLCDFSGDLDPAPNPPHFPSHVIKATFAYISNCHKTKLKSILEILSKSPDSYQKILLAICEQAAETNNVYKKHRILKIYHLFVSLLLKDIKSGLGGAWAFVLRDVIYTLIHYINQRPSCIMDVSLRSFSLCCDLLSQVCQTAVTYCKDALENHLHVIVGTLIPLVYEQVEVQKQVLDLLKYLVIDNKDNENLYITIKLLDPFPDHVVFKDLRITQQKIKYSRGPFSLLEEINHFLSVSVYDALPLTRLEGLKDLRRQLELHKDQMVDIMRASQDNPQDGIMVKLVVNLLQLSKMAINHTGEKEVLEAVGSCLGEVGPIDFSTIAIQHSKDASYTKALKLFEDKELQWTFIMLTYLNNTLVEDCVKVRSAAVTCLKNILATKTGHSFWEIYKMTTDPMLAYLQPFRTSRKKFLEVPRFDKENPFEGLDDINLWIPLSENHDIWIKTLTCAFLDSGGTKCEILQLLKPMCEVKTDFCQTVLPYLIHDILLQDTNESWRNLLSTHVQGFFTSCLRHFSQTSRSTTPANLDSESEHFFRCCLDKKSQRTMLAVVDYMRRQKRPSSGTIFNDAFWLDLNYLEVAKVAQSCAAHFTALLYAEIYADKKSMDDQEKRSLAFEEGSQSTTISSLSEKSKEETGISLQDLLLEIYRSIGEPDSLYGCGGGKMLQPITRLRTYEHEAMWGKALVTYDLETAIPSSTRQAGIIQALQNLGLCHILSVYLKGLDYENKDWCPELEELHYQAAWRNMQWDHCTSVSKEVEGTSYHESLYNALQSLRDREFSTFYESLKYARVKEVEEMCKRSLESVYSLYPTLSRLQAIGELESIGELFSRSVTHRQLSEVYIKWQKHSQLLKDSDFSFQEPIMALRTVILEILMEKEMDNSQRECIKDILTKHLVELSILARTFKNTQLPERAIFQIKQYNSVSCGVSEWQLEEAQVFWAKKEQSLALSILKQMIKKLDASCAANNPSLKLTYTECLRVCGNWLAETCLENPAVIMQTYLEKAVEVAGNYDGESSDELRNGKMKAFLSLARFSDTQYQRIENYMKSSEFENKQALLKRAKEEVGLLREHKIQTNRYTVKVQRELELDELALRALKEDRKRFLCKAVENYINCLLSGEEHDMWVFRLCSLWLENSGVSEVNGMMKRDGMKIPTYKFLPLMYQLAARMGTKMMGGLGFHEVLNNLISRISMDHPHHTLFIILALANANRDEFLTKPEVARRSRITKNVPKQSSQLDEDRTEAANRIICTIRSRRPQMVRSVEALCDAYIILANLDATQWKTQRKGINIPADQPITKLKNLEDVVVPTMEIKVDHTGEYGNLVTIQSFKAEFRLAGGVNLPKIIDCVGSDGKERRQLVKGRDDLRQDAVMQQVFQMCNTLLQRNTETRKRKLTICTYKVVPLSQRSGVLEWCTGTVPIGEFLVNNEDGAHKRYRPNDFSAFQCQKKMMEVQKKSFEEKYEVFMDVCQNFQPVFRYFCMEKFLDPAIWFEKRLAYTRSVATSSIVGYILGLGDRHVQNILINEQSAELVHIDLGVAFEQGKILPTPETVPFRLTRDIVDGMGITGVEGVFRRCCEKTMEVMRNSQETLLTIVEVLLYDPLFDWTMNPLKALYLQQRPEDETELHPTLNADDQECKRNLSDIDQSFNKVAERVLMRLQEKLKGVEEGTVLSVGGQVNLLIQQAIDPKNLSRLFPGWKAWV
Procedure: as §1, §2, §3

ATR/ATRIP(h) = biological target: T3, ATR/ATRIP(h) (Homo sapiens, UniProt Q13535)
T3 construct: purchased Eurofins (KinaseProfiler)
Procedure: as §1, §2, §3

CDK1/cyclinB(h) = biological target: T4, CDK1/cyclinB(h) (Homo sapiens, UniProt P06493)
T4 construct: purchased Eurofins (KinaseProfiler)
Procedure: as §1, §2, §3

CDK14/cyclinY(h) = biological target: T5, CDK14/cyclinY(h) (Homo sapiens, UniProt O94921)
T5 construct: purchased Eurofins (KinaseProfiler)
Procedure: as §1, §2, §3

CDK16/cyclinY(h) = biological target: T6, CDK16/cyclinY(h) (Homo sapiens, UniProt Q00536)
T6 construct: purchased Eurofins (KinaseProfiler)
Procedure: as §1, §2, §3

CDK17/cyclinY(h) = biological target: T7, CDK17/cyclinY(h) (Homo sapiens, UniProt Q00537)
T7 construct: purchased Eurofins (KinaseProfiler)
Procedure: as §1, §2, §3

CDK18/cyclinY(h) = biological target: T8, CDK18/cyclinY(h) (Homo sapiens, UniProt Q07002)
T8 construct: purchased Eurofins (KinaseProfiler)
Procedure: as §1, §2, §3

CDK2/cyclinA(h) = biological target: T9, CDK2/cyclinA(h) (Homo sapiens, UniProt P24941)
T9 construct: purchased Eurofins (KinaseProfiler)
Procedure: as §1, §2, §3

CDK2/cyclinE(h) = biological target: T10, CDK2/cyclinE(h) (Homo sapiens, UniProt P24941)
T10 construct: purchased Eurofins (KinaseProfiler)
Procedure: as §1, §2, §3

CDK3/cyclinE(h) = biological target: T11, CDK3/cyclinE(h) (Homo sapiens, UniProt Q00526)
T11 construct: purchased Eurofins (KinaseProfiler)
Procedure: as §1, §2, §3

CDK5/p25(h) = biological target: T12, CDK5/p25(h) (Homo sapiens, UniProt Q00535)
T12 construct: purchased Eurofins (KinaseProfiler)
Procedure: as §1, §2, §3

CDK6/cyclinD3(h) = biological target: T13, CDK6/cyclinD3(h) (Homo sapiens, UniProt Q00534)
T13 construct: purchased Eurofins (KinaseProfiler)
T13 sequence (Q00534 whole entry): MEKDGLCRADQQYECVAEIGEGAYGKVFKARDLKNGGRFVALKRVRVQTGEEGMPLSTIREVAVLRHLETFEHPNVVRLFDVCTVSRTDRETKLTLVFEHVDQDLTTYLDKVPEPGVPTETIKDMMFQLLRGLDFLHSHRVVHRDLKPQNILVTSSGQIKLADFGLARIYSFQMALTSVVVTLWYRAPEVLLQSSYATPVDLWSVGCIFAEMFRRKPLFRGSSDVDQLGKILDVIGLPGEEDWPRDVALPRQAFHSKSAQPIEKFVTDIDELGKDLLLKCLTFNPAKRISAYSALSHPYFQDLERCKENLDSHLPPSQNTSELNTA
T13 sequence (P30281 whole entry partner): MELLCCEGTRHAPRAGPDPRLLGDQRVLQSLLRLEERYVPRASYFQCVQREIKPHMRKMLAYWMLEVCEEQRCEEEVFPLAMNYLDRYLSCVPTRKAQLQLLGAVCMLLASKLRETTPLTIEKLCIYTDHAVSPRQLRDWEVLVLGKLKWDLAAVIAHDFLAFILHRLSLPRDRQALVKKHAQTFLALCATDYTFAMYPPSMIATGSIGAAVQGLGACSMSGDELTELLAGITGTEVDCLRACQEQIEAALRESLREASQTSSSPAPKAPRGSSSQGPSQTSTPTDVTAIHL
Procedure: as §1, §2, §3

CDK7/cyclinH/MAT1(h) = biological target: T14, CDK7/cyclinH/MAT1(h) (Homo sapiens, UniProt P50613)
T14 construct: purchased Eurofins (KinaseProfiler)
Procedure: as §1, §2, §3

CDK9/cyclin T1(h) = biological target: T15, CDK9/cyclin T1(h) (Homo sapiens, UniProt P50750)
T15 construct: purchased Eurofins (KinaseProfiler)
Procedure: as §1, §2, §3

CDKL4(h) = biological target: T16, CDKL4(h) (Homo sapiens, UniProt Q5MAI5)
T16 construct: purchased Eurofins (KinaseProfiler)
Procedure: as §1, §2, §3

Cdc7/cyclinB1(h) = biological target: T17, Cdc7/cyclinB1(h) (Homo sapiens, UniProt O00311)
T17 construct: purchased Eurofins (KinaseProfiler)
Procedure: as §1, §2, §3

ChaK1(h) = biological target: T18, ChaK1(h) (Homo sapiens, UniProt Q96QT4)
T18 construct: purchased Eurofins (KinaseProfiler)
Procedure: as §1, §2, §3

DNA-PK(h) = biological target: T19, DNA-PK(h) (Homo sapiens, UniProt P78527)
T19 construct: purchased Eurofins (KinaseProfiler)
Procedure: as §1, §2, §3

DYRK3(h) = biological target: T20, DYRK3(h) (Homo sapiens, UniProt O43781)
T20 construct: purchased Eurofins (KinaseProfiler)
Procedure: as §1, §2, §3

GRK5(h) = biological target: T21, GRK5(h) (Homo sapiens, UniProt P34947)
T21 construct: purchased Eurofins (KinaseProfiler)
Procedure: as §1, §2, §3

GRK6(h) = biological target: T22, GRK6(h) (Homo sapiens, UniProt P43250)
T22 construct: purchased Eurofins (KinaseProfiler)
Procedure: as §1, §2, §3

MAPKAP-K3(h) = biological target: T23, MAPKAP-K3(h) (Homo sapiens, UniProt Q16644)
T23 construct: purchased Eurofins (KinaseProfiler)
Procedure: as §1, §2, §3

MLK4(h) = biological target: T24, MLK4(h) (Homo sapiens, UniProt Q5TCX8)
T24 construct: purchased Eurofins (KinaseProfiler)
T24 sequence (Q5TCX8 whole entry): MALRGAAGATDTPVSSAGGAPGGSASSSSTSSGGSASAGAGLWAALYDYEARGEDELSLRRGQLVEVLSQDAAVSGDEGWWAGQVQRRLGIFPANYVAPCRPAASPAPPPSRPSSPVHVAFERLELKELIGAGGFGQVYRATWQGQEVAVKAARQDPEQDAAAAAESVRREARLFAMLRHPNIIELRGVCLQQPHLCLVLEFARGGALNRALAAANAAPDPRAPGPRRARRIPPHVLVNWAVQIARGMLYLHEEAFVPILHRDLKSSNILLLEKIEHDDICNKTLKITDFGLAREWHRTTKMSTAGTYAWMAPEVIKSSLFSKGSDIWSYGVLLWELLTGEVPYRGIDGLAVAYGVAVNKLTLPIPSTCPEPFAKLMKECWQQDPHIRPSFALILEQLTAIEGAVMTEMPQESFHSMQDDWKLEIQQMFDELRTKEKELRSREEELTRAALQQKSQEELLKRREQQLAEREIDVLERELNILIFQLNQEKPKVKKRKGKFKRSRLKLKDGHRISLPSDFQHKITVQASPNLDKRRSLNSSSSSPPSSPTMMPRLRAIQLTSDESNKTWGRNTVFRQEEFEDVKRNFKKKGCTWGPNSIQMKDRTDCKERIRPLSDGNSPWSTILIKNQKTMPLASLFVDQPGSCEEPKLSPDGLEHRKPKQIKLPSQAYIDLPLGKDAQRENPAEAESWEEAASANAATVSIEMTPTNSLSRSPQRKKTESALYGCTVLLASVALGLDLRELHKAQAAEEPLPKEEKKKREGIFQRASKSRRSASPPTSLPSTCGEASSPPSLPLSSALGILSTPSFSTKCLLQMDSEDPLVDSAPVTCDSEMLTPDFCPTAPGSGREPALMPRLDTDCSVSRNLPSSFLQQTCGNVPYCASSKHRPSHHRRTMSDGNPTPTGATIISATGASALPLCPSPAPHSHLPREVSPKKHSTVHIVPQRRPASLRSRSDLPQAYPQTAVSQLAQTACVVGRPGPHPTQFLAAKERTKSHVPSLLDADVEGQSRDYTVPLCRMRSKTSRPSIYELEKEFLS
Procedure: as §1, §2, §3

MOK(h) = biological target: T25, MOK(h) (Homo sapiens, UniProt Q9UQ07)
T25 construct: purchased Eurofins (KinaseProfiler)
Procedure: as §1, §2, §3

PASK(h) = biological target: T26, PASK(h) (Homo sapiens, UniProt Q96RG2)
T26 construct: purchased Eurofins (KinaseProfiler)
Procedure: as §1, §2, §3

PDHK2(h) = biological target: T27, PDHK2(h) (Homo sapiens, UniProt Q15119)
T27 construct: purchased Eurofins (KinaseProfiler)
Procedure: as §1, §2, §3

PDHK4(h) = biological target: T28, PDHK4(h) (Homo sapiens, UniProt Q16654)
T28 construct: purchased Eurofins (KinaseProfiler)
Procedure: as §1, §2, §3

PEK(h) = biological target: T29, PEK(h) (Homo sapiens, UniProt Q9NZJ5)
T29 construct: purchased Eurofins (KinaseProfiler)
Procedure: as §1, §2, §3

PI3KC2a(h) = biological target: T30, PI3KC2a(h) (Homo sapiens, UniProt O00443)
T30 construct: purchased Eurofins (KinaseProfiler)
Procedure: as §1, §2, §3

PIP4K2a(h) = biological target: T31, PIP4K2a(h) (Homo sapiens, UniProt P48426)
T31 construct: purchased Eurofins (KinaseProfiler)
Procedure: as §1, §2, §3

PKCβI(h) = biological target: T32, PKCβI(h) (Homo sapiens, UniProt P05771)
T32 construct: purchased Eurofins (KinaseProfiler)
Procedure: as §1, §2, §3

PKCγ(h) = biological target: T33, PKCγ(h) (Homo sapiens, UniProt P05129)
T33 construct: purchased Eurofins (KinaseProfiler)
Procedure: as §1, §2, §3

PKCζ(h) = biological target: T34, PKCζ(h) (Homo sapiens, UniProt Q05513)
T34 construct: purchased Eurofins (KinaseProfiler)
Procedure: as §1, §2, §3

TAF1L(h) = biological target: T35, TAF1L(h) (Homo sapiens, UniProt Q8IZX4)
T35 construct: purchased Eurofins (KinaseProfiler)
Procedure: as §1, §2, §3

TRB2(h) = biological target: T36, TRB2(h) (Homo sapiens, UniProt Q92519)
T36 construct: purchased Eurofins (KinaseProfiler)
T36 sequence (Q92519 whole entry): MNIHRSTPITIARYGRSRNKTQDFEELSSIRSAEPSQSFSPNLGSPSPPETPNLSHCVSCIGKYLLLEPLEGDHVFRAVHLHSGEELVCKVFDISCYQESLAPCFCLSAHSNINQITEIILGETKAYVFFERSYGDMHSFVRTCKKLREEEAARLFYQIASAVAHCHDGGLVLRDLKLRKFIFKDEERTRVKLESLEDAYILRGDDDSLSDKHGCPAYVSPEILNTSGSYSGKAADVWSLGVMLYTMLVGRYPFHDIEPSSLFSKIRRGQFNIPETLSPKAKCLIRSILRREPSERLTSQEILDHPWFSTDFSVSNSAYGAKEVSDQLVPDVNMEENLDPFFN
Procedure: as §1, §2, §3

TSSK4(h) = biological target: T37, TSSK4(h) (Homo sapiens, UniProt Q6SA08)
T37 construct: purchased Eurofins (KinaseProfiler)
Procedure: as §1, §2, §3

TTBK1(h) = biological target: T38, TTBK1(h) (Homo sapiens, UniProt Q5TCY1)
T38 construct: purchased Eurofins (KinaseProfiler)
Procedure: as §1, §2, §3

TTBK2(h) = biological target: T39, TTBK2(h) (Homo sapiens, UniProt Q6IQ55)
T39 construct: purchased Eurofins (KinaseProfiler)
Procedure: as §1, §2, §3

VRK1(h) = biological target: T40, VRK1(h) (Homo sapiens, UniProt Q99986)
T40 construct: purchased Eurofins (KinaseProfiler)
Procedure: as §1, §2, §3

eEF-2K(h) = biological target: T41, eEF-2K(h) (Homo sapiens, UniProt O00418)
T41 construct: purchased Eurofins (KinaseProfiler)
Procedure: as §1, §2, §3

With [2H]C([2H])([2H])N(C(=O)Oc1c(N2CCN(C[C@H](O)CN(C)C)C2=O)cc(C(F)(F)F)cc1C(F)(F)F)c1ccc(F)cc1 [RTx-303] as the molecule, how does the activity at 10 µM (A-Raf(h)) read?
The activity at 10 µM was 105%.

What about the activity at 10 µM (ATM(h)) of the same molecule?
Its activity at 10 µM is 93%.

And the activity at 10 µM (ATR/ATRIP(h))?
Its activity at 10 µM is 77%.

And the activity at 10 µM (CDK1/cyclinB(h))?
The activity at 10 µM was 105%.

What about the activity at 10 µM (CDK14/cyclinY(h)) of the same molecule?
Its activity at 10 µM is 105%.

And the activity at 10 µM (CDK16/cyclinY(h))?
The activity at 10 µM was 102%.

And the activity at 10 µM (CDK17/cyclinY(h))?
The activity at 10 µM was 110%.

And the activity at 10 µM (CDK18/cyclinY(h))?
The activity at 10 µM was 89%.

And the activity at 10 µM (CDK2/cyclinA(h))?
The activity at 10 µM was 100%.

What about the activity at 10 µM (CDK2/cyclinE(h)) of the same molecule?
Its activity at 10 µM is 109%.

And the activity at 10 µM (CDK3/cyclinE(h))?
The activity at 10 µM was 114%.

And the activity at 10 µM (CDK5/p25(h))?
Its activity at 10 µM is 104%.

And the activity at 10 µM (CDK6/cyclinD3(h))?
The activity at 10 µM was 101%.

What about the activity at 10 µM (CDK7/cyclinH/MAT1(h)) of the same molecule?
The activity at 10 µM was 109%.

And the activity at 10 µM (CDK9/cyclin T1(h))?
Its activity at 10 µM is 119%.

And the activity at 10 µM (CDKL4(h))?
Its activity at 10 µM is 99%.

And the activity at 10 µM (Cdc7/cyclinB1(h))?
Its activity at 10 µM is 92%.

And the activity at 10 µM (ChaK1(h))?
Its activity at 10 µM is 102%.

And the activity at 10 µM (DNA-PK(h))?
The activity at 10 µM was 94%.

And the activity at 10 µM (DYRK3(h))?
The activity at 10 µM was 113%.

What about the activity at 10 µM (GRK5(h)) of the same molecule?
The activity at 10 µM was 103%.

And the activity at 10 µM (GRK6(h))?
Its activity at 10 µM is 90%.

And the activity at 10 µM (MAPKAP-K3(h))?
Its activity at 10 µM is 98%.

What about the activity at 10 µM (MLK4(h)) of the same molecule?
The activity at 10 µM was 109%.

What about the activity at 10 µM (MOK(h)) of the same molecule?
Its activity at 10 µM is 100%.

And the activity at 10 µM (PASK(h))?
The activity at 10 µM was 75%.

What about the activity at 10 µM (PDHK2(h)) of the same molecule?
The activity at 10 µM was 98%.

What about the activity at 10 µM (PDHK4(h)) of the same molecule?
Its activity at 10 µM is 93%.

And the activity at 10 µM (PEK(h))?
The activity at 10 µM was 104%.

What about the activity at 10 µM (PI3KC2a(h)) of the same molecule?
Its activity at 10 µM is 79%.

And the activity at 10 µM (PIP4K2a(h))?
The activity at 10 µM was 96%.

And the activity at 10 µM (PKCβI(h))?
The activity at 10 µM was 103%.

What about the activity at 10 µM (PKCγ(h)) of the same molecule?
Its activity at 10 µM is 111%.

What about the activity at 10 µM (PKCζ(h)) of the same molecule?
Its activity at 10 µM is 102%.

What about the activity at 10 µM (TAF1L(h)) of the same molecule?
The activity at 10 µM was 95%.

What about the activity at 10 µM (TRB2(h)) of the same molecule?
The activity at 10 µM was 98%.

What about the activity at 10 µM (TSSK4(h)) of the same molecule?
Its activity at 10 µM is 117%.

And the activity at 10 µM (TTBK1(h))?
The activity at 10 µM was 101%.

What about the activity at 10 µM (TTBK2(h)) of the same molecule?
The activity at 10 µM was 99%.

And the activity at 10 µM (VRK1(h))?
The activity at 10 µM was 92%.

What about the activity at 10 µM (eEF-2K(h)) of the same molecule?
Its activity at 10 µM is 94%.
